From publication PMC7726444 (Frontiers in Pharmacology, 2020) come the findings set out here.

In assay [1] the target is T1, WT human PAH (Homo sapiens, UniProt P00439).
T1 construct: made in house
T1 sequence (P00439 1-452): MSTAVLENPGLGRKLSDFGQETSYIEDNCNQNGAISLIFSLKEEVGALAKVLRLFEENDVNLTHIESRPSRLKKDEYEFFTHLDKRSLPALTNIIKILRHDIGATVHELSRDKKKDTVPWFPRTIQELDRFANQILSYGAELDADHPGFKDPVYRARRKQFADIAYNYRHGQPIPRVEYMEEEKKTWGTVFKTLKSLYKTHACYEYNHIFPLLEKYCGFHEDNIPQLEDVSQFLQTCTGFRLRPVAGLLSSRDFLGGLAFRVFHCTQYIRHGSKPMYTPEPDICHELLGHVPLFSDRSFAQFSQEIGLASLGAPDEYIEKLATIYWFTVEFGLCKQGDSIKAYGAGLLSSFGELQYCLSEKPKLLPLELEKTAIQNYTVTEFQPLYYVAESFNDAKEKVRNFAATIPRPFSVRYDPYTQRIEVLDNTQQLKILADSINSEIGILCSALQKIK
Briefly: PAH enzymatic activity assay (selectivity). Particulars: up to a concentration of 100 µM. The assay is classed as biochemical. As to the method: Full-length WT TPH1 and TPH2 were expressed as N-terminal six-His-maltose-binding protein fusion proteins in pETM-41 and were cleaved and purified as described previously ([McKinney et al., 2004]; [Winge et al., 2007]). Human WT PAH and TH were expressed and isolated as described previously ([Flydal et al., 2012]; [Bezem et al., 2016]).
Purified WT human TPH2, PAH, and TH were used for this purpose, and the activity assays for each enzyme was performed as described previously ([Haavik and Flatmark, 1980]; [Winge et al., 2007]; [Aubi et al., 2015]; [Bezem et al., 2016]).

Assay [2] relates to 5-HT content in brain and serum. Briefly: LC-MS/MS determination of 5-HT levels in brain and serum. The assay is classed as in vivo, mouse. Particulars: 100 mg/kg i.p. once daily for 4 days. The source says: Male CD-1 mice (Janvier Labs, Le Genest-St-Isle, France), 3 months of age were used. The animals in the different treatment groups were matched for age. The University of Barcelona’s Committee on Animal Use and Care approved the protocol. Animals were housed and tested in compliance with the guidelines described in the Guide for the Care and Use of Laboratory Animals ([Clark et al., 1997]) and following the European Union directives (2010/63/EU), FELASA and ARRIVE guidelines. All efforts were made to minimize animal suffering and the number of animals used. All animals were housed in groups of five in standard cages with ad libitum access to food and water and maintained under a 12-h dark/light cycle (starting at 7:30 AM), 22°C temperature, and 66% humidity. […]
Quantitative analysis of 5-HT was carried out by liquid chromatography coupled with tandem mass spectrometry (LC-MS/MS) using an Agilent 1,290 Infinity UHPLC chromatograph (Santa Clara, CA) coupled to a 6500 QTRAP mass spectrometer (ABSciex, Framingham, MA) equipped with an Ion Drive Turbo V ion source operating in positive ion mode. […] Sample-to-sample differences in recovery, liquid handling, and ionization efficiency were compensated for by normalizing to the amount of 5-HT-d4 detected in the samples. […]

Molecules are shown by their SMILES.

Regarding `COc1ccc2[nH]c([S+]([O-])Cc3ncc(C)c(OC)c3C)nc2c1` (stereo not drawn) [Omeprazole], in assay [1], the “inhibition of PAH” value is listed as “no inhibition”. For the same compound, the “5-HT content in serum vs vehicle” value in assay [2] (serum) was “significantly higher 5-HT content”. The “5-HT content in brain vs vehicle” value in assay [2] (whole-brain tissue) is given as “significantly higher 5-HT content”.
